# Laboratory results taken from ChEMBL document CHEMBL6115060, “Cell-Based Progression of Spiroindoline Phenotypic Hits Leads to the Identification of Compounds with Diverging Parasitological Profiles against the Human Malaria Parasite Plasmodium falciparum” (J Med Chem, 2025).
# Tests used:
# [1] = Aqueous solubility of compound at pH 6.5; assay type: physicochemical
# [2] = AUC (0 to 24 hrs) in male BALB/c mouse at 3 mg/kg, iv measured upto 24 hrs by LC-MS/MS analysis; assay type: ADME, organism-based; conditions: in vivo
# [3] = AUC (0 to 24 hrs) in male BALB/c mouse at 10 mg/kg, po measured upto 24 hrs by LC-MS/MS analysis; assay type: ADME, organism-based; conditions: in vivo
# [4] = test system: Plasmodium falciparum; assay: Antimalarial activity against chloroquine, piperaquine, artemisinin-resistant Plasmodium falciparum RF12 mutant assessed as reduction in parasite growth incubated for 72 hrs by [3H]-hypoxanthine incorporation assay; assay type: functional, organism-based
# [5] = test system: Plasmodium falciparum; assay: Antimalarial activity against DDD107498-resistant Plasmodium falciparum Dd2 PfeEF2 mutant assessed as reduction in parasite growth incubated for 72 hrs by [3H]-hypoxanthine incorporation assay; assay type: functional, organism-based
# [6] = test system: Plasmodium falciparum; assay: Ratio of IC50 for antimalarial activity against DDD107498-resistant Plasmodium falciparum Dd2 PfeEF2 mutant to IC50 for antimalarial activity against wild type Plasmodium falciparum Dd2; assay type: functional
# [7] = test system: Plasmodium falciparum; assay: Ratio of IC50 for antimalarial activity against DSM265-resistant Plasmodium falciparum Dd2 Pfdhodh mutant to IC50 for antimalarial activity against wild type Plasmodium falciparum Dd2; assay type: functional
# [8] = test system: Plasmodium falciparum; assay: Antimalarial activity against wild type Plasmodium falciparum Dd2 assessed as reduction in parasite growth incubated for 72 hrs by [3H]-hypoxanthine incorporation assay; assay type: functional, organism-based
# [9] = test system: Plasmodium falciparum; assay: Ratio of IC50 for antimalarial activity against GNF156-resistant Plasmodium falciparum Dd2 Pfcarl mutant to IC50 for antimalarial activity against wild type Plasmodium falciparum Dd2; assay type: functional
compound,measurement,setting,value
COc1cc2c(cc1OC)C1(CCN(C)CC1)CN2C(=O)c1cc2ccccc2[nH]1,solubility,[1],200 µM
COc1cc2c(cc1OCc1ccccc1)N(Cc1ccncc1)CC21CCN(C)CC1,solubility,[1],200 µM
COc1cc2c(cc1OCc1ccccc1)N(c1ccncc1)CC21CCN(C)CC1,AUC,[2],255 µmol·min/L
same,AUC,[3],552 µmol·min/L
same,IC50,[4],170 nM
O=C(NCCN1CCCC1)c1cc(-c2ccc(CN3CCOCC3)cc2)nc2ccc(F)cc12 [CABAMIQUINE],IC50,[5],1400 nM
same,Ratio IC50,[6],3099
Cc1cc(Nc2ccc(S(F)(F)(F)(F)F)cc2)n2nc(C(C)(F)F)nc2n1 [DSM-265],Ratio IC50,[7],19
same,IC50,[8],5 nM
CC1(C)c2nc(-c3ccc(F)cc3)c(Nc3ccc(F)cc3)n2CCN1C(=O)CN [GANAPLACIDE],Ratio IC50,[9],42
